What was measured:
[1] = target: T1, human liver-X-receptor LXRβ (Homo sapiens, UniProt P55055); assay: LXRE-luciferase gene reporter assay in HEK293T, LXRβ; assay type: cell-based; conditions: LXRβ; 10 µM 22(R)HC; read-out: IC50, inhibition of LXR-dependent luciferase activity stimulated by 22(R)HC
T1 construct: expressed in transfected cells; host or cells: HEK293T
From the text: HEK293T were used for luciferase assays. Cells were transfected using the PolyEthylenImine (PEI) method with human retinoid-X receptor (RXRγ) and human liver-X-receptors (LXRα or LXRβ) with LXRE-Luc; RXRγ and human farnesoid X receptor (FXR) with EcRE-Luc; RXRγ and human steroid and xenobiotic X receptor (SXR) with DR4-Luc; RXRγ and human peroxisome proliferator activated receptors (PPARα, or PPARγ) with PPRE-Luc; RXRγ and human retinoic acid receptor (RARα) with DR1-Luc; human AHR and human ARNT with a DRE-Luc; human vitamin D receptor (VDR) with VDRE-Luc. Cells were transfected with plasmids encoding human glucocorticoid receptor (GR), progesterone receptor (PR), or androgen receptor (AR) with MMTV-Luc; or estrogen receptors (ERα and ERβ) with an ERE-Luc. The day after transfection with the luciferase reporter gene construct, cells were seeded in 12-well plates (50,000 cells per well). […] Luciferase activity was measured using the luciferase assay reagent (Promega), according to the manufacturer’s instructions. Protein concentrations were measured using the Bradford method to normalize luciferase activities. For each condition, luciferase activity was calculated from the data of three independent wells.

[2] = target: T2, 3β-hydroxysterol-Δ8,7-isomerase (D8D7I) (Homo sapiens, UniProt Q15125); assay: D8D7I inhibition shown by Δ8-sterol accumulation in melanoma cells; assay type: cell-based; conditions: B16F10 and SKMEL-28, 2.5 µM DDA, 48 h; accumulation of zymostenol and 8-dehydrocholesterol
T2 construct: endogenous in cells; host or cells: B16F10 (murine) and SKMEL-28 (human) melanoma cells
T2 sequence (Q15125 whole entry, stated change not applied): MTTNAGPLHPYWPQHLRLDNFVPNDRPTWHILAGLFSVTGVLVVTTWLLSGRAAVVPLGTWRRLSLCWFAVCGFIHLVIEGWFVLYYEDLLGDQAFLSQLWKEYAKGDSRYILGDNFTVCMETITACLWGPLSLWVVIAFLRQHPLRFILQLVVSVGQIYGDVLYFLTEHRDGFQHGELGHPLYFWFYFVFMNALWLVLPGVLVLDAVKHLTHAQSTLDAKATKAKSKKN
Method: Sterols in cell homogenates were extracted with a solvent mixture containing chloroform/methanol 2/1 (v/v) spiked with epicoprostanol as the internal standard. Lipids were partitioned in chloroform after the addition of saline and saponified by methanolic potassium hydroxide (0.5 N, 60 °C, 15 min). The fatty acids released were methylated with BF3-methanol (12%, 60 °C, 15 min) to not interfere with the chromatography of sterols. The sterols were re-extracted in hexane and silylated, as described previously. […] Sterols were identified by the fragmentogram in the scanning mode and quantified by selective monitoring of the specific ions after normalization with the internal standard epicoprostanol and calibration with weighed standards.
Supplementary Fig. 2. DD A induce d th e accum ulation of cholestero l precursors in m elanom a cells. a Quantification of sterol accum ulation in cells after 48 h tr eatm ent with or without 2.5 µM DDA. […]
accum ulation. e Representative EM im ages of cells treated for 24 h with solvent vehicle (panels 1- 2) or 2.5 µM DDA (panels 3- 4). […] Cells were treated with solvent vehicle (control) or 2.5 µM DDA for 24 h with or without 1 µ M Baf A1, the n stained with MDC and obser ved by fluorescence m icroscopy. […]

T1 sequence (P55055 whole entry): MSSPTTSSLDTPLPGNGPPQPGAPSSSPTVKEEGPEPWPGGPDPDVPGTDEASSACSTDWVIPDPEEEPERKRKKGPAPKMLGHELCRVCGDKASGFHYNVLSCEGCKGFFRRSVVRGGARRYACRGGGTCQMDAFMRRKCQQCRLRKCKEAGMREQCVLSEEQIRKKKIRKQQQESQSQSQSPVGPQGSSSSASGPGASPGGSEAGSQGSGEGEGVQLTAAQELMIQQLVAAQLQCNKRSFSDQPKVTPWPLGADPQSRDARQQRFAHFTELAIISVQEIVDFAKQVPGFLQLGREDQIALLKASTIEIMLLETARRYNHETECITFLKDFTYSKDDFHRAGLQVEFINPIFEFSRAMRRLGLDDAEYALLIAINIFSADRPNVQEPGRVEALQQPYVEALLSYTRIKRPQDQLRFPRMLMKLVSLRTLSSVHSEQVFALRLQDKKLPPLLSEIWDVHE
T1 sequence (P48443 whole entry partner): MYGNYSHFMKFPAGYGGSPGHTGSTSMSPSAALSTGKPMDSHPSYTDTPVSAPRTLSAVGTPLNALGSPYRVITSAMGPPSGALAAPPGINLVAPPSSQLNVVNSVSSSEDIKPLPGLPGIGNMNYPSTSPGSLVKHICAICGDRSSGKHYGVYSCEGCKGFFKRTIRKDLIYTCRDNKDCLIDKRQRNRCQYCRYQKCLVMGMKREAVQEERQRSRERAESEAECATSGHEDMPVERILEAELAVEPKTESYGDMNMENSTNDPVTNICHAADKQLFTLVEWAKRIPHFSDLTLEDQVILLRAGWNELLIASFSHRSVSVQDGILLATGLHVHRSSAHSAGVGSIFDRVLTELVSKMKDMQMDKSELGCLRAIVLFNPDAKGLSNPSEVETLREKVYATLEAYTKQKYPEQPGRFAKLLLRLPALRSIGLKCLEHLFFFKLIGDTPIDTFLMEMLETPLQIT

CC(C)CCC[C@@H](C)[C@H]1CC[C@H]2[C@@H]3C[C@@H](NCCc4cnc[nH]4)[C@@]4(O)C[C@@H](O)CC[C@]4(C)[C@H]3CC[C@]12C [DDA, Dendrogenin A]
IC50 [1]: 76 ± 12 nM | D8D7I inhibition [2]: inhibited D8D7I
